Experimental data reported in US20230210853A1 (Halia Therapeutics, Inc., priority 2020, published 2023).

Biological target: T1, full-length recombinant human NEK7 (Homo sapiens, UniProt Q8TDX7)
T1 construct: full-length recombinant human NEK7; GST (N); purchased SignalChem N09-10G; host or cells: Sf9 insect cells (baculovirus)
Assay: NEK7 enzymatic assay ([33P]-ATP, casein substrate)
Format: biochemical
Settings: recombinant human NEK7, casein substrate
Description: In some embodiments, the IC50 of the compounds of Structure (I), (Ia), (Ib), (Ic), (Id), (Ie), or (If) to inhibit NEK7 was determined by the concentration of the compound required to inhibit 50% of the activity of the NEK kinase.
(§1) Casein substrate (from bovine milk, hydrolyzed and partially dephosphorylated mixture of α, β and κ caseins, obtained from Sigma Aldrich, catalogue #C4765, diluted in distilled water to a final concentration of 1 mg/mL) and full-length recombinant human NEK7 (expressed by baculovirus in Sf9 insect cells using a N-terminal GST tag, obtained from SignalChem, catalogue #N09-10G, 0.1 μg/μL) were mixed in assay buffer (20 mM Hepes pH 7.5, 10 mM MgCl2, 1 mM EGTA, 0.02% Brij35, 0.02 mg/ml BSA, 0.1 mM Na3 VO4, 2 mM DTT, 1% DMSO). Compounds of interest (serial 3-fold dilution in DMSO from 10 μM to 0.5 nM) or vehicle (1% DMSO) were dispensed into the kinase reaction mixture by Acoustic technology (Echo550, nanoliter range). After incubation at room temperature for 20 minutes, the kinase reaction was initiated by addition of [^33P]-ATP (specific activity 10 μCi/μl) and the mixture was incubated at room temperature for 2 hours. The reaction was then stopped by spotting the reaction mixture on strips of phosphocellulose P81 paper. Following washing, the radioactivity of the P81 paper was measured and kinase activity data were expressed as the percent remaining kinase activity in test samples compared to vehicle reactions. IC50 values and curve fits were obtained using Prism (GraphPad Software).
as §1, with “μg/L)” for “μg/μL)”, “Na3VO4,” for “Na3 VO4,”, “(Echo550;” for “(Echo550,”

T1 sequence (Q8TDX7 whole entry): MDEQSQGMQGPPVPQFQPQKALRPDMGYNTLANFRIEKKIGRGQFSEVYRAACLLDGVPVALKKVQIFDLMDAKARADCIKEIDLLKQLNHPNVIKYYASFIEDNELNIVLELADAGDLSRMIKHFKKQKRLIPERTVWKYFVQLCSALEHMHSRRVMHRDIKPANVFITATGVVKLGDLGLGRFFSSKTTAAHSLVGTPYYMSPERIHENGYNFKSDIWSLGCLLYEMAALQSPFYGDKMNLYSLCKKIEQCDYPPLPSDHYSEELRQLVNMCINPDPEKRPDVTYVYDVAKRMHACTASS

IC50 (Table 2a) [nM] | IC50 (Table 2b) [nM] | SMILES
< 150 |  | CC(C)(C)c1cc(NC(=O)Nc2ccc(-c3nn(C4CC4)c4ncnc(N)c34)cc2)on1 [Ia-20, 1-(4-(4-amino-1-cyclopropyl-1H-pyrazolo[3,4-d]pyrimidin-3-yl)phenyl)-3-(3-(tert-butyl)isoxazol-5-yl)urea]
151 to 300 |  | CC(C)(c1cc(NC(=O)Nc2ccc(-c3nn(C4CC4)c4ncnc(N)c34)cc2F)on1)C(F)(F)F [Ia-22, 1-(4-(4-amino-1-cyclopropyl-1H-pyrazolo[3,4-d]pyrimidin-3-yl)-2-fluorophenyl)-3-(3-(1,1,1-trifluoro-2-methylpropan-2-yl)isoxazol-5-yl)urea]
< 150 |  | CC(C)(C)c1cc(NC(=O)Nc2ccc(-c3nn(C4COC4)c4ncnc(N)c34)cc2F)no1 [Ia-23, 1-(4-(4-amino-1-(oxetan-3-yl)-1H-pyrazolo[3,4-d]pyrimidin-3-yl)-2-fluorophenyl)-3-(5-(tert-butyl)isoxazol-3-yl)urea]
< 150 |  | CC(C)(C)c1cc(NC(=O)Nc2ccc(-c3nn(C4CCOC4)c4ncnc(N)c34)cc2F)on1 (stereo not shown) [Ia-24, 1-(4-(4-amino-1-(tetrahydrofuran-3-yl)-1H-pyrazolo[3,4-d]pyrimidin-3-yl)-2-fluorophenyl)-3-(3-(tert-butyl)isoxazol-5-yl)urea]
151 to 300 |  | C=CCn1nc(-c2ccc(NC(=O)Nc3cc(C(C)(C)C)on3)c(F)c2)c2c(N)ncnc21 [Ia-26]
501 to 1500 |  | CC(C)(F)c1cc(NC(=O)Nc2ccc(-c3nn(C4CC4)c4ncnc(N)c34)cc2F)on1 [Ia-27, 1-(4-(4-amino-1-cyclopropyl-1H-pyrazolo[3,4-d]pyrimidin-3-yl)-2-fluorophenyl)-3-(3-(2-fluoropropan-2-yl)isoxazol-5-yl)urea]
< 150 |  | Cn1nc(-c2ccc(NC(=O)Nc3cc(C(C)(C)C)no3)c(F)c2)c2c(N)ncnc21 [Ia-29, 1-(4-(4-amino-1-methyl-1H-pyrazolo[3,4-d]pyrimidin-3-yl)-2-fluorophenyl)-3-(3-(tert-butyl)isoxazol-5-yl)urea]
501 to 1500 |  | CC(C)(C)c1cc(NC(=O)Nc2ccc(-c3nn(C4CC4)c4ccnc(N)c34)cc2)on1 [Ia-31, 1-(4-(4-amino-1-cyclopropyl-1H-pyrazolo[4,3-c]pyridin-3-yl)phenyl)-3-(3-(tert-butyl)isoxazol-5-yl)urea]
501 to 1500 |  | CC(C)(C)c1cc(NC(=O)Nc2ccc(-c3nn(C4CC4)c4ncnc(N)c34)cc2F)sn1 [Ia-35, 1-(4-(4-amino-1-cyclopropyl-1H-pyrazolo[3,4-d]pyrimidin-3-yl)-2-fluorophenyl)-3-(3-(tert-butyl)isothiazol-5-yl)urea]
501 to 1500 |  | CC(C)(C)c1nnc(NC(=O)Nc2ccc(-c3nn(C4CC4)c4ncnc(N)c34)cc2F)o1 [Ia-36, 1-(4-(4-amino-1-cyclopropyl-1H-pyrazolo[3,4-d]pyrimidin-3-yl)-2-fluorophenyl)-3-(5-(tert-butyl)-1,3,4-oxadiazol-2-yl)urea]
151 to 300 |  | Nc1ncnc2c1c(-c1ccc(NC(=O)Nc3cc(C(F)(F)F)no3)c(F)c1)nn2C1CC1 [Ia-39, 1-(4-(4-amino-1-cyclopropyl-1H-pyrazolo[3,4-d]pyrimidin-3-yl)-2-fluorophenyl)-3-(3-(trifluoromethyl)isoxazol-5-yl)urea]
151 to 300 |  | CCC(CC)c1cc(NC(=O)Nc2ccc(-c3nn(C4CC4)c4ncnc(N)c34)cc2F)on1 [Ia-40, 1-(4-(4-amino-1-cyclopropyl-1H-pyrazolo[3,4-d]pyrimidin-3-yl)-2-fluorophenyl)-3-(3-(pentan-3-yl)isoxazol-5-yl)urea]
301 to 500 |  | CC(C)c1cc(NC(=O)Nc2ccc(-c3nn(C4CC4)c4ncnc(N)c34)cc2F)on1 [Ia-41, 1-(4-(4-amino-1-cyclopropyl-1H-pyrazolo[3,4-d]pyrimidin-3-yl)-2-fluorophenyl)-3-(3-isopropylisoxazo1-5-yl)urea]
< 150 |  | CCc1cc(NC(=O)Nc2ccc(-c3nn(C4CC4)c4ncnc(N)c34)cc2F)on1 [Ia-42, 1-(4-(4-amino-1-cyclopropyl-1H-pyrazolo[3,4-d]pyrimidin-3-yl)-2-fluorophenyl)-3-(3-ethylisoxazol-5-yl)urea]
151 to 300 |  | CCC(C)c1cc(NC(=O)Nc2ccc(-c3nn(C4CC4)c4ncnc(N)c34)cc2F)on1 (stereo not shown) [Ia-43, 1-(4-(4-amino-1-cyclopropyl-1H-pyrazolo[3,4-d]pyrimidin-3-yl)-2-fluorophenyl)-3-(3-(sec-butyl)isoxazol-5-yl)urea]
151 to 300 |  | CC1(c2cc(NC(=O)Nc3ccc(-c4nn(C5CC5)c5ncnc(N)c45)cc3F)on2)CCC1 [Ia-44, 1-(4-(4-amino-1-cyclopropyl-1H-pyrazolo[3,4-d]pyrimidin-3-yl)-2-fluorophenyl)-3-(3-(1-methylcyclobutyl)isoxazol-5-yl)urea]
301 to 500 |  | Cc1cc(-c2nn(C3CC3)c3ncnc(N)c23)ccc1NC(=O)Nc1cc(C2(C(F)(F)F)CC2)no1 [Ia-48, 1-(4-(4-amino-1-cyclopropyl-1H-pyrazolo[3,4-d]pyrimidin-3-yl)-2-methylphenyl)-3-(3-(1-(trifluoromethyl)cyclopropyl)isoxazol-5-yl)urea]
151 to 300 |  | Nc1ncnc2c1c(-c1ccc(NC(=O)Nc3cc(C4(C(F)(F)F)CC4)no3)nc1)nn2C1COC1 [Ia-61]
 | > 1500 | CC(C)(C)c1cc(NC(=O)Nc2ccc(Oc3ccnc4[nH]ccc34)cc2F)n(-c2ccccc2)n1 [Ib-1, 1-(4-((1H-pyrrolo[2,3-b]pyridin-4-yl)oxy)-2-fluorophenyl)-3-(3-(tert-butyl)-1-phenyl-1H-pyrazol-5-yl)urea]
 | > 1500 | CC(C)(C)c1cc(NC(=O)Nc2ccc(Oc3ccnc4[nH]ccc34)c(C(F)(F)F)c2)n(-c2ccccc2)n1 [Ib-2, 1-(4-((1H-pyrrolo[2,3-]pyridin-4-yl)oxy)-3-(TRIFLUOROMETHYL)phenyl)-3-(3-(tert-butyl)-1-phenyl-1H-pyrazol-5-yl)urea]
 | > 1500 | CC(C)(C)c1cc(NC(=O)Nc2ccc(Oc3ncnc4[nH]ccc34)cc2F)n(-c2ccccc2)n1 [Ib-3, 1-(4-((7H-pyrrolo[2,3-d]pyrimidin-4-yl)oxy)-2-fluorophenyl)-3-(3-(tert-butyl)-1-phenyl-1H-pyrazol-5-yl)urea]
 | 501 to 1500 | CC(C)(C)c1cc(NC(=O)Nc2ccc(Oc3ccnc4[nH]cc(Cl)c34)cc2F)n(-c2ccccc2)n1 [Ib-6, 1-(3-(tert-butyl)-1-phenyl-1H-pyrazol-5-yl)-3-(4-((3-chloro-1H-pyrrolo[2,3-b]pyridin-4-yl)oxy)-2-fluorophenyl)urea]
 | 501 to 1500 | Cn1nc(C(C)(C)C)cc1NC(=O)Nc1ccc(Oc2ccnc3[nH]cc(Cl)c23)cc1F [Ib-7, 1-(3-(tert-butyl)-1-methyl-1H-pyrazol-5-yl)-3-(4-((3-chloro-1H-pyrrolo[2,3-b]pyridin-4-yl)oxy)-2-fluorophenyl)urea]
 | > 1500 | Cc1cc(NC(=O)Nc2ccc(Oc3ccnc4[nH]cc(Cl)c34)cc2F)n(-c2ccc(C#N)cc2)n1 [Ib-9, 1-(4-((3-chloro-1H-pyrrolo[2,3-b]pyridin-4-yl)oxy)-2-fluorophenyl)-3-(1-(4-cyanophenyl)-3-methyl-1H-pyrazol-5-yl)urea]
 | > 1500 | Cc1cc(NC(=O)Nc2ccc(Oc3ccnc4[nH]cc(Cl)c34)cc2F)n(-c2ccccc2)n1 [Ib-10, 1-(4-((3-chloro-1-pyrrolo[2,3-b]pyridin-4-yl)oxy)-2-fluorophenyl)-3-(3-methyl-1-phenyl-1H-pyrazol-5-yl)urea]
